Measurements reported in patent publication US8541573B2, “Substituted sulfonamide compounds” (Gruenenthal GmbH, priority 2008, dated 2013).
Where a name gives a salt, the structure may show the parent alone.

How the values were obtained:
human B1R = target: T1, human B1R (Homo sapiens, UniProt P46663); assay: Functional investigation on the bradykinin 1 receptor (B1R), cell-based fluorescent calcium-mobilization assay (FLIPR/Novostar), human; conditions: 10 μM test substance, CHO K1 cells stably transfected with human B1R gene, agonist Lys-Des-Arg9-bradykinin at EC80, % inhibition compared with maximum achievable inhibition; for inhibition at 10 µM: read-out: B1R antagonism, human [10 μM] % inhibition
T1 construct: expressed in transfected cells; host or cells: CHO K1 cells
T1 sequence (P46663 1-353): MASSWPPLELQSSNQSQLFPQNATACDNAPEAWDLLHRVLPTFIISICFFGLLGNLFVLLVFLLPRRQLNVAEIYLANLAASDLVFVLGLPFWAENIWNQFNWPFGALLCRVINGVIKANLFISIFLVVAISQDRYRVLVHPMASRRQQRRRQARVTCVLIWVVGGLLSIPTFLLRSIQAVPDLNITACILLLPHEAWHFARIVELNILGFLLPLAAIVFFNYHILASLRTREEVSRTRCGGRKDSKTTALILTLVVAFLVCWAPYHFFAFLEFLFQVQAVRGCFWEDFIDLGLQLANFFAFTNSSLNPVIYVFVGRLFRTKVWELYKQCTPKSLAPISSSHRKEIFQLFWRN
How it was run: (§1)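 Stably transfected CHO K1 cells loaded with Fluo-4-AM; fluorescence peak read by FLIPR/Novostar (ex 488, em 540 nm). Test compounds at 10 μM give % activation vs Lys-Des-Arg9-BK (human) or Des-Arg9-BK (rat); after 6-20 min, agonist added at EC80 and % inhibition vs maximum achievable inhibition derived.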

B1R of rats = target: T2, B1R of rats (Rattus norvegicus, UniProt P97583); assay: Functional investigation on the bradykinin 1 receptor (B1R), cell-based fluorescent calcium-mobilization assay (FLIPR/Novostar), rat; conditions: 10 μM test substance, CHO K1 cells stably transfected with rat B1R gene, agonist Des-Arg9-bradykinin at EC80, % inhibition compared with maximum achievable inhibition; for inhibition at 10 µM: read-out: B1R antagonism, rat [10 μM] % inhibition
T2 construct: expressed in transfected cells; host or cells: CHO K1 cells
T2 sequence (P97583 1-337): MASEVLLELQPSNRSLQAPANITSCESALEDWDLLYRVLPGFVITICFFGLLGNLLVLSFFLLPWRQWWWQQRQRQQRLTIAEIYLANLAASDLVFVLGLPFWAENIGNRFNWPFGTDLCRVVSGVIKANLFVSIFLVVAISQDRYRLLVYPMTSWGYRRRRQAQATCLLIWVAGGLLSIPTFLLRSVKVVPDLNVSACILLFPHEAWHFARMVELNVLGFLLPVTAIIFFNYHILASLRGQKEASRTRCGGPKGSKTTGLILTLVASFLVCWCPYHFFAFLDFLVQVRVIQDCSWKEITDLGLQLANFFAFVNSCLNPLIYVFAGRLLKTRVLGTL
How it was run: as §1

inhibition at 10 µM (human B1R) [%]	inhibition at 10 µM (B1R of rats) [%]	B1R antagonism, human [10 μM] % inhibition (human B1R; hydrochloride, 10 µM) [%]	B1R antagonism, rat [10 μM] % inhibition (B1R of rats; hydrochloride, 10 µM) [%]	Compound
50	73			CN1CCN(C2(CNC(=O)c3cccnc3)CCN(C(=O)CC(NS(=O)(=O)c3ccc4ccccc4c3)c3ccccc3)CC2)CC1 (stereo not drawn) [Example 38, N-((4-(4-methylpiperazin-1-yl)-1-(3-(naphthalene-2-sulfonamido)-3-phenylpropanoyl)piperidin-4-yl)methyl)nicotinamide]
11	94			CN1CCN(C2(CNC(=O)c3cccnc3)CCN(C(=O)CC3CCCCN3S(=O)(=O)c3cccc(C(F)(F)F)c3)CC2)CC1 (stereo not drawn) [Example 39, N-((4-(4-methylpiperazin-1-yl)-1-(2-(1-(3-(trifluoromethyl)phenylsulfonyl)-piperidin-2-yl)acetyl)piperidin-4-yl)methyl)nicotinamide]
49	103			CN1CCN(C2(CNC(=O)c3cccnc3)CCN(C(=O)COCC3CCc4ccccc4N3S(=O)(=O)c3ccc(Cl)c(Cl)c3)CC2)CC1 (stereo not drawn) [Example 40, N-((1-(2-((1-(3,4-dichlorophenylsulfonyl)-1,2,3,4-tetrahydroquinolin-2-yl)methoxy)acetyl)-4-(4-methylpiperazin-1-yl)piperidin-4-yl)methyl)nicotinamide]
100	102			COc1cc(C)c(S(=O)(=O)N(C)CCOCC(=O)N2CCC(CNC(C)=O)(N3CCN(c4ccncc4)CC3)CC2)c(C)c1 [Example 41, N-((1-(2-(2-(4-methoxy-N,2,6-trimethylphenylsulfonamido)ethoxy)acetyl)-4-(4-(pyridin-4-yl)piperazin-1-yl)piperidin-4-yl)methyl)acetamide]
97	96			COc1cc(C)c(S(=O)(=O)N(CCOCC(=O)N2CCC(CN3Cc4ccccc4C3=O)(N3CCN(C4CC4)CC3)CC2)C2CC2)c(C)c1 [Example 42, N-Cyclopropyl-N-(2-(2-(4-(4-cyclopropylpiperazin-1-yl)-4-((1-oxoisoindolin-2-yl)methyl)piperidin-1-yl)-2-oxoethoxy)ethyl)-4-methoxy-2,6-dimethylbenzenesulfonamide]
100	103			Cc1cccc(Cl)c1S(=O)(=O)N(CCOCC(=O)N1CCC(CNC(=O)c2ccncc2)(N2CCN(C3CC3)CC2)CC1)C1CC1 [Example 43, N-((1-(2-(2-(2-Chloro-N-cyclopropyl-6-methylphenylsulfonamido)ethoxy)-acetyl)-4-(4-cyclopropylpiperazin-1-yl)piperidin-4-yl)methyl)-isonicotinamide]
100	102			COc1cc(C)c(S(=O)(=O)N(CCOCC(=O)N2CCC(CNC(=O)c3ccncc3)(N3CCN(C4CC4)CC3)CC2)C2CC2)c(C)c1 [Example 44, N-((1-(2-(2-(N-Cyclopropyl-4-methoxy-2,6-dimethylphenylsulfonamido)ethoxy)acetyl)-4-(4-cyclopropylpiperazin-1-yl)piperidin-4-yl)methyl)isonicotinamide]
100	102			COc1cc(C)c(S(=O)(=O)N2c3ccccc3C[C@H]2COCC(=O)N2CCC(CNC(=O)c3ccncc3)(N3CCN(C4CC4)CC3)CC2)c(C)c1 [Example 45, (S)—N-((4-(4-Cyclopropylpiperazin-1-yl)-1-(2-((1-(4-methoxy-2,6-dimethylphenylsulfonyl)indolin-2-yl)methoxy)acetyl)piperidin-4-yl)methyl)isonicotinamide]
100	101			COc1cc(C)c(S(=O)(=O)N(CCOCC(=O)N2CCC(CNC(C)=O)(N3CCN(c4ccncc4)CC3)CC2)C2CC2)c(C)c1 [Example 46, N-((1-(2-(2-(N-Cyclopropyl-4-methoxy-2,6-dimethylphenylsulfonamido)ethoxy)acetyl)-4-(4-(pyridin-4-yl)piperazin-1-yl)piperidin-4-yl)methyl)acetamide]
100	99			O=C(NCC1(N2CCN(C3CC3)CC2)CCN(C(=O)COCCN(C2CC2)S(=O)(=O)c2ccccc2C(F)(F)F)CC1)c1ccncc1 [Example 47, N-((1-(2-(2-(N-Cyclopropyl-2-(trifluoromethyl)phenylsulfonamido)ethoxy)acetyl)-4-(4-cyclopropylpiperazin-1-yl)piperidin-4-yl)methyl)isonicotinamide]
		100	97	COc1cc(C)c(S(=O)(=O)N(C)CCOCC(=O)N2CCC(CNC(=O)c3ccncc3)(N3CCN(C)CC3)CC2)c(C)c1 [Example 48, N-((1-(2-(2-(4-Methoxy-N,2,6-trimethylphenylsulfonamido)ethoxy)acetyl)-4-(4-methylpiperazin-1-yl)piperidin-4-yl)methyl)isonicotinamide hydrochloride]
100	102			COc1cc(C)c(S(=O)(=O)N2c3ccccc3OCC2COCC(=O)N2CCC(CNC(=O)c3ccncc3)(N3CCN(C)CC3)CC2)c(C)c1 (stereo not drawn) [Example 49, N-((1-(2-((4-(4-Methoxy-2,6-dimethylphenylsulfonyl)-3,4-dihydro-2H-benzo[b][1,4]oxazin-3-yl)methoxy)acetyl)-4-(4-methylpiperazin-1-yl)piperidin-4-yl)methyl)isonicotinamide]
96	102			Cc1cccc(Cl)c1S(=O)(=O)N1c2ccccc2OCC1COCC(=O)N1CCC(CNC(=O)c2ccncc2)(N2CCN(C)CC2)CC1 (stereo not drawn) [Example 50, N-((1-(2-((4-(2-Chloro-6-methylphenylsulfonyl)-3,4-dihydro-2H-benzo[b][1,4]oxazin-3-yl)methoxy)acetyl)-4-(4-methylpiperazin-1-yl)piperidin-4-yl)methyl)isonicotinamide]
100	103			COc1cc(C)c(S(=O)(=O)N(C)CCOCC(=O)N2CCC(CNC(=O)c3ccncc3)(N3CCN(C)CC3)CC2)c(C)c1C [Example 51, N-((1-(2-(2-(4-Methoxy-N,2,3,6-tetramethylphenylsulfonamido)ethoxy)acetyl)-4-(4-methylpiperazin-1-yl)piperidin-4-yl)methyl)isonicotinamide]
100	102			COc1cc(C)c(S(=O)(=O)N2CCCCC2COCCC(=O)N2CCC(CNC(=O)c3ccncc3)(N3CCN(C)CC3)CC2)c(C)c1 (stereo not drawn) [Example 52, N-((1-(3-((1-(4-Methoxy-2,6-dimethylphenylsulfonyl)piperidin-2-yl)methoxy)propanoyl)-4-(4-methylpiperazin-1-yl)piperidin-4-yl)methyl)isonicotinamide]
